Values of other authors, collected in EP1803441A1 (Teva Pharmaceutical Industries Ltd, priority 2005, dated 2007).

What was measured:
[1] = orally administered tablets
[2] = oral administration

CC(C)OC(=O)C(C)(C)Oc1ccc(C(=O)c2ccc(Cl)cc2)cc1 [fenofibrate, 2-[4-(4-chlorobenzoyl)phenoxy]-2-methyl-propanoic acid, 1-methylethyl ester]
increase of the extent of absorption when tablets are taken with food [1]: approximately 35% | part of a single dose excreted in the feces [2]: 25%
